Measured values: article PMC2362735, “New semisynthetic vinca alkaloids: chemical, biochemical and cellular studies” (British Journal of Cancer, 1999)
pIC50: −log10 of the molar value. Read-outs that look alike come from different tables or passages of the source.

What was measured:
[1] = test system: Human neuroblastoma cell line (SH-SY5Y); assay: Microculture tetrazolium assay (MTA), cytotoxicity; details: Homo sapiens, 96 h
Description: (§1) The numerous antimitotic drugs already developed and therapeu- tically used for a large number of pathologies belong to different classes based on their chemical structure and other distinctive features. Antimitotic drugs usually target the tubulin/microtubule network of the cytoskeleton that is formed by assembly of cyto- plasmic tubulin dimers. The stability of the different microtubular structures varies considerably; some of their functions depend on their lability. The lability is augmented by the extreme sensitivity to various drugs. Several synthetic and natural compounds interact specifically with tubulin and/or microtubule, fundamentally destroying its dynamic character and leading to cell death. […] Because of their extensive clinical use, it is important to synthesize additional agents having at least the same biological activity. […] Nevertheless, it is unclear yet how the anti-calmodulin activity of these drugs is related to their desired and undesired pharmacological effects. […] The synthesis of the KAR derivatives are presented. […] Taxol, GTP and trifluoperazine were purchased from Sigma. All organic reagents for synthesis of the new compounds were obtained from Aldrich and were of the highest grade. All other chemicals were reagent grade commercial preparations. […] Tubulin was stored in 1 M sucrose, 10 mM sodium phosphate buffer, 0.5 mM magnesium chloride and 0.1 mM GTP, pH 7.0, at -80C and dialysed against the appropriate buffer before use. […] PFK, aldolase and glycerol-3-phosphate dehydrogenase- triosephosphate isomerase purified from rabbit skeletal muscle were purchased in ammonium sulphate suspensions from Sigma or Boehringer. The enzyme suspensions were centrifuged at 10 000g for 5 min. The pellets were suspended in the appropriate buffer, then the enzymes were gel filtered or dialysed in the same buffer to remove ammonium sulphate. […] (Figure 1B; R1 , CH3; R2 , CH2 CH2 Cl). […] After 2 h incubation at room temperature, 200 ml dried toluene was added to the reaction mixture. […] The mixture was stirred for 30 min. After separation of the organic phase, it was washed with water (3 x 30 ml) and dried with potassium sulphate and evaporated on a water bath of 35-40C at 20-27 hPa. The resulting material was chromatographed on silica gel (500 g, bead size of 0.040- 0.063 mm) column (30 mm x 500 mm) using ethyl acetate/ethanol (9:1) mixture as eluent. […] The mixture was kept for 4 h at room temperature and then evaporated on a water bath at 40C under a vacuum of 80 hPa to a final volume of 5-6 ml. […] (Figure 1B, R1 , CHO; R2 , CH2 CH2 Cl). […] Synthesis of KAR-4 [3-allyl-2,4-dioxo-3,5-spiro-oxazolidino- 4-deacetoxy-vinblastine] (Figure 1B; R1 , CH3; R2 , CH2 CH=CH2 ). […] NMR measurements were carried out on a Varian Unity plus-500 instrument (500 MHz for 1H and 125 MHz for 13C) in DMSO. Chemical shifts were determined relative to dTMS = 0.00 p.p.m. 1H and 13C signal assignments were verified by a concerted use of two-dimensional 1H-1H and 1H-13C shift correlation methods (DQFCOSY, HSQC, HMBC) and NOESY experiments. The gradient-enhanced DQFCOSY, HSQC, HMBC and NOESY experiments were recorded by using the standard spectrometer software package. A mixing time of tmix = 0.5 s was used for the NOESY experiments.

[2] = test system: tubulin; assay: Taxol-induced tubulin polymerization, turbidity at 350 nm; assay type: biochemical, calf; details: taxol-induced assembly, MES buffer pH 6.8, 37C; average of three independent measurements; read-out: Anti-tubulin effect, turbidity at 350 nm, IC50
Description: as §1

[3] = test system: tubulin/microtubule, PFK-bundled microtubules; assay: Tubulin polymerization with or without PFK (bundled vs single microtubules): turbidity and pelleting with SDS-PAGE; assay type: biochemical, calf; details: 10 M tubulin, 2 M drug, 20 µM taxol, SDS-PAGE of supernatant and pellet
Description: The numerous antimitotic drugs already developed and therapeu- tically used for a large number of pathologies belong to different classes based on their chemical structure and other distinctive features. Antimitotic drugs usually target the tubulin/microtubule network of the cytoskeleton that is formed by assembly of cyto- plasmic tubulin dimers. The stability of the different microtubular structures varies considerably; some of their functions depend on their lability. The lability is augmented by the extreme sensitivity to various drugs. Several synthetic and natural compounds interact specifically with tubulin and/or microtubule, fundamentally destroying its dynamic character and leading to cell death. […] Because of their extensive clinical use, it is important to synthesize additional agents having at least the same biological activity. […] Nevertheless, it is unclear yet how the anti-calmodulin activity of these drugs is related to their desired and undesired pharmacological effects. […] The synthesis of the KAR derivatives are presented. […] Taxol, GTP and trifluoperazine were purchased from Sigma. All organic reagents for synthesis of the new compounds were obtained from Aldrich and were of the highest grade. All other chemicals were reagent grade commercial preparations. […] Tubulin was stored in 1 M sucrose, 10 mM sodium phosphate buffer, 0.5 mM magnesium chloride and 0.1 mM GTP, pH 7.0, at -80C and dialysed against the appropriate buffer before use. […] PFK, aldolase and glycerol-3-phosphate dehydrogenase- triosephosphate isomerase purified from rabbit skeletal muscle were purchased in ammonium sulphate suspensions from Sigma or Boehringer. The enzyme suspensions were centrifuged at 10 000g for 5 min. The pellets were suspended in the appropriate buffer, then the enzymes were gel filtered or dialysed in the same buffer to remove ammonium sulphate. […] (Figure 1B; R1 , CH3; R2 , CH2 CH2 Cl). […] After 2 h incubation at room temperature, 200 ml dried toluene was added to the reaction mixture. […] The mixture was stirred for 30 min. After separation of the organic phase, it was washed with water (3 x 30 ml) and dried with potassium sulphate and evaporated on a water bath of 35-40C at 20-27 hPa. The resulting material was chromatographed on silica gel (500 g, bead size of 0.040- 0.063 mm) column (30 mm x 500 mm) using ethyl acetate/ethanol (9:1) mixture as eluent. […] The mixture was kept for 4 h at room temperature and then evaporated on a water bath at 40C under a vacuum of 80 hPa to a final volume of 5-6 ml. […] (Figure 1B, R1 , CHO; R2 , CH2 CH2 Cl). […] Synthesis of KAR-4 [3-allyl-2,4-dioxo-3,5-spiro-oxazolidino- 4-deacetoxy-vinblastine] (Figure 1B; R1 , CH3; R2 , CH2 CH=CH2 ). […] NMR measurements were carried out on a Varian Unity plus-500 instrument (500 MHz for 1H and 125 MHz for 13C) in DMSO. Chemical shifts were determined relative to dTMS = 0.00 p.p.m. 1H and 13C signal assignments were verified by a concerted use of two-dimensional 1H-1H and 1H-13C shift correlation methods (DQFCOSY, HSQC, HMBC) and NOESY experiments. The gradient-enhanced DQFCOSY, HSQC, HMBC and NOESY experiments were recorded by using the standard spectrometer software package. A mixing time of tmix = 0.5 s was used for the NOESY experiments. […] Mass spectrum was recorded on a Kratos MS 80 instrument using FAB.

[4] = target: T1, calmodulin (Bos taurus, UniProt P62157); design: method as in Molnar et al (1995); details: ref Molnar et al (1995); cited from earlier work
T1 construct: Calmodulin from bovine brain was purified to homogeneity using Phenyl-Sepharose (Pharmacia) chromatography; from tissue; host or cells: bovine brain

[5] = test system: mouse leukaemia P388; design: method as in Orosz et al, 1997a; details: P388, 0.2 mg kg-1, eightfold treatment; ref Orosz et al, 1997a; cited from earlier work

SMILES: CC[C@]1(O)C[C@@H]2CN(CCc3c([nH]c4ccccc34)[C@@](C(=O)OC)(c3cc4c(cc3OC)N(C)[C@H]3[C@@](O)(C(=O)OC)[C@H](OC(C)=O)[C@]5(CC)C=CCN6CC[C@]43[C@@H]65)C2)C1 [Vinblastine, vinblastine, reference compound]
pIC50 ([1]; read-out: Cytotoxicity MTA IC50): 8.30
IC50 ([1]; read-out: Cytotoxicity MTA IC50 (M)): 5e-09 M
tubulin partition in pelleting experiment, without PFK ([3]; no PFK): practically all tubulin appears in the super- natants
tubulin partition in pelleting experiment, with PFK (bundled microtubules) ([3]; 2 M PFK): significant amount of tubulins were assembled into microtubules
Anti-calmodulin activity: Efficiency (%) [4]: 61%
T/C [5]: 199%
